Assay results as given in patent US20030100769A1, “Cyclic amidine compounds” (priority 2000, published 2003).
Like-named read-outs stand apart in the source and are kept apart here.

Key:
[1] = molecular target: T1, α4β2 subtype of nicotinic acetylcholine receptors (Rattus norvegicus, UniProt P09483+P12390); assay: Binding assay at α4β2 subtype of nicotinic acetylcholine receptors ([3H]-cytisine, rat brain membrane)
T1 construct: examined using rat brain membrane obtained from whole homogenized brain; from tissue; host or cells: rat whole brain membranes (Fischer-344 male rats)
T1 sequence (P09483 31-630): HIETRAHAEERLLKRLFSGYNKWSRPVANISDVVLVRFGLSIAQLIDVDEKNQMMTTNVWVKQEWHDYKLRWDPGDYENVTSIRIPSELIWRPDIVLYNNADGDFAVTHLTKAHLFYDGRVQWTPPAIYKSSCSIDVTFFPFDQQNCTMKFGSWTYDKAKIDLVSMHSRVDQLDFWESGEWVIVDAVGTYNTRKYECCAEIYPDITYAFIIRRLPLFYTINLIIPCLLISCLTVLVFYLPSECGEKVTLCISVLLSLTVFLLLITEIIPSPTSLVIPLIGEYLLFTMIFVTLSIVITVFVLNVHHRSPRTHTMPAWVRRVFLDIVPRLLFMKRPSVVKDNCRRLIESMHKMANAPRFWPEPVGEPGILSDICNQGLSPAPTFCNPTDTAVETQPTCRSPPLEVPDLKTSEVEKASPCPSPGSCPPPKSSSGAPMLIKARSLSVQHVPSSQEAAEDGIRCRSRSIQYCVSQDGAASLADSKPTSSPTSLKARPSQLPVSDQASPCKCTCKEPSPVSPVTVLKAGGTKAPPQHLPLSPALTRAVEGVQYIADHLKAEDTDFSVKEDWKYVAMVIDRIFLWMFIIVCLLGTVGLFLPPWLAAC
T1 sequence (P12390 25-500): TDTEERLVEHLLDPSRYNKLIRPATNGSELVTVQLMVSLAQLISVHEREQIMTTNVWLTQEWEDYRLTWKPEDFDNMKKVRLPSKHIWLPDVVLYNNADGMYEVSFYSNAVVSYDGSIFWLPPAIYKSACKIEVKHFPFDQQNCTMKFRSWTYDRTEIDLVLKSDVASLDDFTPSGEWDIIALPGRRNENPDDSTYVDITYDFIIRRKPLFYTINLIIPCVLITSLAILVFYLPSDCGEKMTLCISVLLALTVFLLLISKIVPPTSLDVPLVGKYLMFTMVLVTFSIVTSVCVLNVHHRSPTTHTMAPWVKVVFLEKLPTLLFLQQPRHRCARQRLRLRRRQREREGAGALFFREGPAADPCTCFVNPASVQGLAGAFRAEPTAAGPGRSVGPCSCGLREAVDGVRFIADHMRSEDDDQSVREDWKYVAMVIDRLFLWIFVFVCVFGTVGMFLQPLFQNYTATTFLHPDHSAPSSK
From the text: (§1) The methods for evaluating the binding capabilities of the compounds at nicotinic acetylcholine receptors are different by subtypes of receptors. The binding capabilities of the compounds at α4β2 nicotinic acetylcholine receptors are examined using rat brain membrane obtained from whole homogenized brain, and determining the inhibiting rate of the compounds against [^3H]-cytisine binding to said brain membrane. Furthermore, the binding capabilities of the compounds at α1β1γδ nicotinic acetylcholine receptors are examined using homogenized rat muscle, and determining the inhibiting rate of the compounds against [^3H]-α-bungarotoxin binding to said muscle homogenate.
Binding Assays at α4β2 Subtype of Nicotinic Acetylcholine Receptors
(1) Preparation of Rat Brain Membrane Containing α4β2 Subtype of Nicotinic Acetylcholine Receptors
Rats were housed in the breeding cage controlled of the room temperature at 23±1° C., and the humidity of 55±5% for 1 to 4 weeks. Rats (3 to 4 rats per a cage) were housed with lights on for 12 hours daily (from 7:00 to 19:00), and allowed free access to food and water.
Preparation of rat brain membrane containing α4β2 subtype of nicotinic acetylcholine receptors was performed as follow. That is, rat brains were isolated just after sacrificed by decapitation, washed with ice-cooled saline solution and then frozen at −80° C. with liquid nitrogen and stored till using. After thawing the frozen brain, the brain was homogenized in 10 volumes of ice-cooled buffer solution (50 mM of Tris-HCl, 120 mM of NaCl, 5 mM of KCl, 1 mM of MgCl2, 2 mM of CaCl2; pH 7.4; 4° C.) using homogenizer (HG30, Hitachi Kohki Ltd.) for 30 seconds, and the homogenate were centrifuged under 1,000×G for 10 minutes at 4° C. The resulting supernatant was separated and the pellet was homogenized again with half volume of aforementioned prior buffer solution and centrifuged under the same conditions. Combined supernatant was further centrifuged under 40,000×G for 20 minutes at 4° C. The pellet was suspended in buffer solution and used for binding assays at receptors.
(2) Experiments of α4β2 Subtype of Nicotinic Acetylcholine Receptors Binding
Suspensions of membrane pellets containing 400-600 μg of protein were added to test tubes containing test compounds and [^3H]-cytisine (2 nM) in a final volume of 200 μl and incubated for 75 minutes in ice-cooled bath. The samples were isolated by vacuum filtration onto Whatman GF/B filters, which were prerinsed with 0.5% polyethylenimine just prior to sample filtration, using Brandel multi manifold cell harvester. The filters were rapidly washed with buffer solution (3×1 ml). The filters were counted in 3 ml of clearsol I (Nacalai Tesque Inc.).
The analyses of the experimental results were conducted by using the Accufit Competition Program (Beckman Ltd.).

[2] = molecular target: α1β1γδ subtype of nicotinic acetylcholine receptors (Rattus norvegicus, UniProt P18916+P25108+P25109+P25110); assay: biochemical; format: binding; details: for remaining activity at 100 µM: read-out: control % of [3H]-α-Bgt binding at 100 μM of test compound; for remaining activity at 1000 µM: read-out: control % of [3H]-α-Bgt binding at 1,000 μM of test compound
Chain of α1β1γδ subtype of nicotinic acetylcholine receptors (P25109 24-501): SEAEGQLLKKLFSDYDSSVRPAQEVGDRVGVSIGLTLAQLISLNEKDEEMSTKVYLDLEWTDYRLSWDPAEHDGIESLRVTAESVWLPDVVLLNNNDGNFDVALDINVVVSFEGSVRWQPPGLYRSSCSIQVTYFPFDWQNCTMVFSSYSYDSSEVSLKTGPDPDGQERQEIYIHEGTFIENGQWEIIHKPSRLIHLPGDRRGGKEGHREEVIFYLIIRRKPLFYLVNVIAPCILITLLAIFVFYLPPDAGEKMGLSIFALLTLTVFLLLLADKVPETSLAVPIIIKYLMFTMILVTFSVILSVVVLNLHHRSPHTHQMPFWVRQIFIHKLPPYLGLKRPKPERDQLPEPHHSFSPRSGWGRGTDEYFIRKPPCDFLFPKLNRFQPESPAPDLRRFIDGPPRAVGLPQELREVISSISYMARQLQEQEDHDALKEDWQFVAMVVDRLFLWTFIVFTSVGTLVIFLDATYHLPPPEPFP
Chain of α1β1γδ subtype of nicotinic acetylcholine receptors (P25110 22-517): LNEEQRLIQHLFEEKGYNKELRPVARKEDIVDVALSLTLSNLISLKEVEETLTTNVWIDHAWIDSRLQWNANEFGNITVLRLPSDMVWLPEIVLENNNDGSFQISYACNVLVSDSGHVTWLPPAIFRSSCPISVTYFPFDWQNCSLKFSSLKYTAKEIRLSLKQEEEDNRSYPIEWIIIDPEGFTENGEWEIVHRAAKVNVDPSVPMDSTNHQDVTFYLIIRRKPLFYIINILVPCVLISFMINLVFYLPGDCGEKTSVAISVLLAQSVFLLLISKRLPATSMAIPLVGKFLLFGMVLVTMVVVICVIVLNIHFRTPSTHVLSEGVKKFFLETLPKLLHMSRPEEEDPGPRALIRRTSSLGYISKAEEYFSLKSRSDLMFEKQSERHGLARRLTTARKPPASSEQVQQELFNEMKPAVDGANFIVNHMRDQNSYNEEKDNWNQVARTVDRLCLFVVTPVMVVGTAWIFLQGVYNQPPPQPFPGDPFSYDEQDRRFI
Chain of α1β1γδ subtype of nicotinic acetylcholine receptors (P25108 21-457): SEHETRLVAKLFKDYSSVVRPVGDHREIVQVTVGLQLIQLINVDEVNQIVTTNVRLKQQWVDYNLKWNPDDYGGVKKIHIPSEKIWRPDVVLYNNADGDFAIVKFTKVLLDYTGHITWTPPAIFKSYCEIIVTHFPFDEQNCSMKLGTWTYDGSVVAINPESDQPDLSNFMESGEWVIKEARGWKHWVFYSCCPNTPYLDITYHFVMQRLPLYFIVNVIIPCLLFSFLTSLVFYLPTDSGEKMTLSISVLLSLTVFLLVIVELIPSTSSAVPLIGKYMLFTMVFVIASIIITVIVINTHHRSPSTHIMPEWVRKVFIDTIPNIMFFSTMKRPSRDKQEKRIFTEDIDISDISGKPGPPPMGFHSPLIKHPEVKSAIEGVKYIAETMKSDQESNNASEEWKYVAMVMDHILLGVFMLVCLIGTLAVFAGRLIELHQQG
From the text: as §1
Binding Assays at α1β1γδ Subtype of Nicotinic Acetylcholine Receptors
The affinity of the compounds of the present invention to α1β1γδ subtype of nicotinic acetylcholine receptors was measured by the following method, which was modified method described by Garcha H. S., Thomas P., Spivak C.
(1) Preparation of Rat Skeletal Muscles Containing α1β1γδ Subtype of Nicotinic Acetylcholine Receptors
The substantially same animals described in the Biological Experiment 1 were used.
The isolation of α1β1γδ subtype of nicotinic acetylcholine receptors was performed as follow. That is, rat posterior skeletal muscles were isolated just after sacrificed by decapitation, washed with ice-cooled saline solution and then frozen at −80° C. with liquid nitrogen and stored till using. After thawing the frozen muscles, tissue was homogenized ([…]) with buffer solution [2.5 mM of sodium phosphate buffer (pH:7.2), 90 mM of NaCl, 2 mM of KCl, 1 mM of EDTA, 2 mM of benzamidine, 0.1 mM of benzethonium chloride, 0.1 mM of PMSF, 0.01% of sodium azide] in Waring blender (Waring blender 34BL97; WARING PRODUCTS DIVISION DYNAMICS CORPORATION OF AMERICA) for 60 seconds. The homogenate were centrifuged under 20,000×G for 60 minutes at 4° C. The supernatant was separated and the resulting pellet was added to the same buffer (1.5 ml/g wet weight), and homogenized under the same conditions. Triton X100 (2% w/v) was added and the mixture was stirred for 3 hours at 4° C. The centrifugation at 100,000×G for 60 minutes at 4° C. yielded the rat muscle extract as supernatant. This was stored at 4° C. for up to 4 weeks, and used for binding assays at receptors.
(2) Experiments of α1β1γδ Subtype of Nicotinic Acetylcholine Receptors Binding
Receptors binding experiments were performed as follow. That is, the extract of rat muscle containing 600-900 μg of protein was added to test tubes containing test compounds and incubated for 15 minutes at 37° C. Then, to this mixture was added 1 nM of [^3H]-α-bungarotoxin (α-Bgt) and further incubated for 2 hours. The samples were isolated by vacuum filtration onto Whatman GF/B filters, which were prerinsed with 0.5% polyethylenimine just prior to sample filtration, using Brandel multi manifold cell harvester. The filters were rapidly rinsed with washing solution (10 mM of KH2PO4, 150 mM of NaCl, pH 7.2, room temperature) (5×1 ml). The filters were counted in 3 ml of clearsol I (Nacalai Tesque Inc.). The determination of nonspecific binding was incubated in the presence of 1 μM α-Bgt. […] In the receptor binding experiments, said buffer solution was added for adjusting the final concentration of BSA to be 0.05%.
The analyses of the experimental results were conducted by the same way as described in the Biological Experiment 1.

[3] = rat brain membrane, [3H]-cytisine 2 nM, read-out: Affinities for receptors Ki α4β2

Molecule CC1=NCCN1Cc1ccc(Cl)nc1 [Compound 11, 1-(6-chloro-3-pyridyl)methyl-2-methyl-2-imidazoline] has a Ki [1] of 0.115 µM, a remaining activity at 100 µM [2] of 74% and a remaining activity at 1000 µM [2] of 53%.

In the case of Brc1cncc(CC2=NCCCN2)c1 [Compound 16, 2-(5-bromo-3-pyridyl)methyl-1,4,5,6-tetrahydropyrimidine], the Ki [1] is reported as 0.392 µM, the remaining activity at 100 µM [2] is reported as 63% and the remaining activity at 1000 µM [2] is reported as 30%.

Molecule C1=NCC(c2cccnc2)N1 (stereo not drawn) [Compound 33, 5-(3-pyridyl)-2-imidazoline] has a Ki [1] of 0.365 µM.

In the case of CN1CCCN=C1c1ccc(Cl)nc1 [Compound 4, 2-(6-chloro-3-pyridyl)-1-methyl-1,4,5,6-tetrahydropyrimidine], the Ki [1] is reported as 0.067 µM, the remaining activity at 100 µM [2] is reported as 46% and the remaining activity at 1000 µM [2] is reported as 16%.

CC1=NCC(c2cccnc2)N1 (stereo not drawn) [Compound 32, 2-methyl-5-(3-pyridyl)-2-imidazoline] showed a Ki [1, 3] of 0.58 µM, a remaining activity at 100 µM [2] of 69% and a remaining activity at 1000 µM [2] of 35%.

In the case of CC1CCNC(Cc2ccc(Cl)nc2)=N1 (stereo not drawn) [Compound 54, 2-(6-chloro-3-pyridyl)methyl-4-methyl-1,4,5,6-tetrahydropyrimidine], the Ki [1] is reported as 0.108 µM and the Ki [2] is reported as 1740 µM.

In the case of Clc1cc(CN2C=NCCC2)cnc1Cl [Compound 52, 1-(5,6-dichloro-3-pyridyl)methyl-1,4,5,6-tetrahydropyrimidine], the Ki [1] is reported as 0.0012 µM and the Ki [2] is reported as 23 µM.

Molecule CN1CCN=C1Cc1ccc(Cl)nc1 [Compound 9, 2-(6-chloro-3-pyridyl)methyl-1-methyl-2-imidazoline] has a Ki [1] of 0.0077 µM, a remaining activity at 100 µM [2] of 43% and a remaining activity at 1000 µM [2] of 16%.

In the case of c1cncc(CC2=NCCN2)c1 [Compound 19, 2-(3-pyridyl)methyl-2-imidazoline], the remaining activity at 100 µM [2] is reported as 69% and the remaining activity at 1000 µM [2] is reported as 29%.

Molecule Clc1ccc(CC2=NCCCN2)cn1 [Compound 8, 2-(6-chloro-3-pyridyl)methyl-1,4,5,6-tetrahydropyrimidine] has a Ki [1] of 0.029 µM and a Ki [2] of 395 µM.

Work on c1ncc(CC2=NCCCN2)cn1 [Compound 66, 2-(5-pyrimidyl)methyl-1,4,5,6-tetrahydropyrimidine] yielded a Ki [1] of 0.09 µM and a Ki [2] of 841 µM.

Work on Clc1ncc(CC2=NCCN2)s1 [Compound 65, 2-(2-chloro-5-thiazolyl)methyl-2-imidazoline] yielded a Ki [1] of 0.053 µM and a Ki [2] of 524 µM.

Molecule Fc1ccc(CC2=NCCCN2)cn1 [Compound 48, 2-(6-fluoro-3-pyridyl)methyl-1,4,5,6-tetrahydropyrimidine] has a Ki [1] of 0.082 µM and a Ki [2] of 257 µM.

Work on c1ccc2ncc(C3=NCCCN3)cc2c1 [Compound 25, 2-(3-quinolyl)-1,4,5,6-tetrahydropyrimidine] yielded a Ki [1, 3] of 0.338 µM, a remaining activity at 100 µM [2] of 41% and a remaining activity at 1000 µM [2] of 7%.

Molecule Cc1cncc(CC2=NCCCN2)c1 [Compound 68, 2-(5-methyl-3-pyridyl)methyl-1,4,5,6-tetrahydropyrimidine] has a Ki [1] of 0.203 µM and a Ki [2] of 231 µM.

c1cncc(CC2=NCCCN2)c1 [Compound 18, 2-(3-pyridyl)methyl-1,4,5,6-tetrahydropyrimidine] showed a Ki [1] of 0.086 µM, a remaining activity at 100 µM [2] of 62% and a remaining activity at 1000 µM [2] of 18%.

In the case of CC1(C)CN(Cc2ccc(Cl)nc2)C=N1 [Compound 12, 1-(6-chloro-3-pyridyl)methyl-4,4-dimethyl-2-imidazoline], the Ki [1] is reported as 0.268 µM, the remaining activity at 100 µM [2] is reported as 79% and the remaining activity at 1000 µM [2] is reported as 42%.

With CN1CCN=C1Cc1cnc(Cl)c(Cl)c1 [Compound 53, 2-(5,6-dichloro-3-pyridyl)methyl-1-methyl-2-imidazoline] the Ki [1] was 0.01 µM and the Ki [2] was 83 µM.

In the case of Cc1ccc(CC2=NCCCN2)cn1 [Compound 43, 2-(6-methyl-3-pyridyl)methyl-1,4,5,6-tetrahydropyrimidine], the Ki [1] is reported as 0.167 µM, the remaining activity at 100 µM [2] is reported as 71% and the remaining activity at 1000 µM [2] is reported as 28%.

In the case of Clc1cc(CC2=NCCCN2)cnc1Cl [Compound 36, 2-(5,6-dichloro-3-pyridyl)methyl-1,4,5,6-tetrahydropyrimidine], the Ki [1] is reported as 0.124 µM, the remaining activity at 100 µM [2] is reported as 81% and the remaining activity at 1000 µM [2] is reported as 34%.

Molecule C1CN=C(CC2CCOC2)NC1 (stereo not drawn) [Compound 15, 2-(tetrahydrofuran-3-yl)methyl-1,4,5,6-tetrahydropyrimidine] has a Ki [1, 3] of 0.95 µM.

In the case of Clc1ncc(CC2=NCCCN2)s1 [Compound 64, 2-(2-chloro-5-thiazolyl)methyl-1,4,5,6-tetrahydropyrimidine], the Ki [1] is reported as 0.0081 µM and the Ki [2] is reported as 23 µM.

Clc1cc(CC2=NCCN2)cnc1Cl [Compound 49, 2-(5,6-dichloro-3-pyridyl)methyl-2-imidazoline] showed a Ki [1, 3] of 0.211 µM and a Ki [2] of 773 µM.

Work on CN1CCCN=C1Cc1ccc(Cl)nc1 [Compound 10, 2-(6-chloro-3-pyridyl)methyl-1-methyl-1,4,5,6-tetrahydropyrimidine] yielded a Ki [1] of 0.001 µM, a remaining activity at 100 µM [2] of 40% and a remaining activity at 1000 µM [2] of 17%.

Molecule Clc1ccc(CC2=NCCN2)cn1 [Compound 7, 2-(6-chloro-3-pyridyl)methyl-2-imidazoline] has a Ki [1] of 0.086 µM, a remaining activity at 100 µM [2] of 80% and a remaining activity at 1000 µM [2] of 51%.
